In US9051417B2, “Method for solubilizing carboxylic acid-containing compound in hydrocarbon solvent” (Dow Global Technologies LLC, priority 2013, dated 2015) one finds Solubility data, which are given here for 2 compounds.

A short description of the data set: Solubility measurement of acid chlorides containing one carboxylic acid moiety in hydrocarbon solvents with and without trialkylphosphate additives (saturated solutions, proton NMR). In kind it is physicochemical. Particulars: saturated solution. The text has this:
Many embodiments of the invention have been described and in some instances certain embodiments, selections, ranges, constituents, or other features have been characterized as being “preferred.” Characterizations of “preferred” features should in no way be interpreted as deeming such features as being required, essential or critical to the invention. For purposes of this description, the terms “acyl halide” and “acid halide” have the same meaning. While much of the description has focused upon acyl chlorides, non-chloride halides are also included. The term “solubility limit” refers to the point at which no additional amount of a constituent, (e.g. water, reaction product, hydrocarbon reactant) is miscible or dissolvable with the hydrocarbon solvent or solution, as measured at 20° C. and 101 kPa. Unless otherwise stated, all solubility related parameters are determined at 20° C. and 101 kPa.
Solubility measurement of acid chlorides containing one carboxylic acid moiety in hydrocarbon solvents with and without solubility enhancing additives:
Saturated solutions of sample acid chlorides containing carboxylic acid moieties were prepared in hydrocarbon solvents with and without the presence of trialkylphosphate additives by adding more sample than will dissolve in the solvent and decanting the saturated solvent from the undissolved precipitate. The saturated solutions were evaluated by proton NMR. Deuterated Isopar L is not commercially available, thus all spectra were acquired in the unlocked condition using regular Isopar L. Because of the very high proton concentration in running a non-deuterated solvent, 60° pulse and minimum receiver gain were used to avoid receiver overflow. A relaxation delay of 8 seconds was used for complete signal recovery between scans. The spectral width was set to 20 ppm and the center of the spectrum was set to 5 ppm. Depending on the concentrations of the species of interest, 64-256 scans were used for signal averaging.
The area of the Isopar L peaks between 0.75 and 2.0 ppm were measure and divided by 26 (which represents the average H's present in Isopar L, assuming a molecular formula of C12H26) and multiplied by 170.33, the formula weight of C12H26. The peak area of the aromatic acid chlorides containing carboxylates are between 8.9-9.2 ppm and are well resolved from the Isopar solvent. The integration of one of the assigned peaks (for example, the triplet of mono-hydrolyzed TMC at 9.0 ppm represents a single proton) was used to determine the relative weight of the sample in the Isopar L solvent. The integration is divided by the number of protons it represents and multiplied by the formula weight of the compound it represents (for example, the triplet of mono-hydrolyzed TMC at 9.0 ppm would be divided by 1 and multiplied by 247.03 g/mol). The wt % of mono-hydrolyzed TMC in the saturated solution is determined by dividing the value obtained for mono-hydrolyzed TMC by the value obtained for Isopar L.
In the presence of tributylphosphate (TBP), the Isopar L value must be corrected since a few protons of TBP cannot be resolved from the Isopar L peaks. This is done by integrating the —OCH2-protons of TBP which are well resolved at ˜4.05 ppm, dividing this value by 6 (for 6 protons). This area value is then multiplied by 21 (represents the three —CH2CH2CH3 that are unresolved from the Isopar L peak) and subtracted from the peak area of Isopar L.

The mark [1] stands for this setting: solvent Isopar L, 20° C. and 101 kPa.

For the compound `O=C(O)c1cccc(C(=O)Cl)c1` [mhIPC], the Solubility was 0.29 wt % (solvent Isopar L + 0.47 wt % TBP) and less than 0.02 wt % under setting [1].

Take `O=C(O)c1cc(C(=O)Cl)cc(C(=O)Cl)c1` [mhTMC, mono-hydrolyzed trimesoyl chloride]: the Solubility (solvent 80/20 Isopar L/Toluene + 0.25 wt % TBP) amounted to 0.29 wt %; the Solubility (solvent 80/20 Isopar L/Toluene) worked out at 0.05 wt %; the Solubility (solvent Isopar L + 1 wt % TEHP) turned out to be 0.11 wt %; the Solubility (solvent Isopar L + 1 wt % TEP) was 0.2 wt %; the Solubility under setting [1] amounted to 0.02 wt %.
